These results are taken from patent US8211929B2, “Pyrimidine derivatives as kinase modulators and method of use” (Exelixis, Inc., priority 2004, dated 2012).

The target of assay [1] is T1, (Homo sapiens, UniProt P08069).
T1 construct: human IGF1R kinase domain residues M954-C1367; made in house; host or cells: baculovirus expression (insect cells)
The experiment in a line: IGF1R kinase assay (LCCA), IGF 0P. It counts as biochemical. In short, it runs like this: (§1)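 Read-out is percent ATP remaining, detected by luciferase-luciferin luminescence after a 2 h ambient reaction. Reaction contained 4 nM IGF1R kinase domain (residues M954-C1367, baculovirus-made), 3 μM ATP (near KM), 4 μM poly EY, pH 7.5 with Mg2+/Mn2+. Ten inhibitor concentrations; IC50 by Hill-type curve fit.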

In a further assay the target is T2, IGF 3P (Homo sapiens, UniProt P08069).
T2 construct: human IGF1R kinase domain residues M954-C1367; made in house; host or cells: baculovirus expression (insect cells)
The experiment in a line: IGF1R kinase assay (LCCA), IGF 3P. It counts as biochemical. In short, it runs like this: as §1

pIC50: −log10 of the molar value.

T2 sequence (P08069 954-1367): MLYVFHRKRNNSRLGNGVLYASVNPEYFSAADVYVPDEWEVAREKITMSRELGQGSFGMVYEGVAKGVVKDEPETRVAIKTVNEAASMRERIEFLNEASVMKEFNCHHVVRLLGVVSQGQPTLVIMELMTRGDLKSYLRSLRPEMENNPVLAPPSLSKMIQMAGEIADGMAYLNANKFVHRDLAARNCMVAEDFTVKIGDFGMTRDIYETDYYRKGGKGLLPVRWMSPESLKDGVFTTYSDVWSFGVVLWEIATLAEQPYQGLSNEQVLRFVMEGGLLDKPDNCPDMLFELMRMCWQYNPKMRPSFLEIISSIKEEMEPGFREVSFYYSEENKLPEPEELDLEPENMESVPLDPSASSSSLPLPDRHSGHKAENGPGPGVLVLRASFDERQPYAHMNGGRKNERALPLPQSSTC
T1 sequence (P08069 954-1367): as above

Broadly, the pIC50 is the IC50 on a negative log10 scale, so that one unit is a factor of ten. Consider `CC(C)c1cc(CNc2nc(Nc3cc(C(C)C)[nH]n3)cc(OCCN3CCOCC3)n2)on1` [Example 587, N-{[3-(1-methylethyl)isoxazol-5-yl]methyl}-N^4-[5-(1-methylethyl)-1H-pyrazol-3-yl]-6-[(2-morpholin-4-ylethyl)oxy]pyrimidine-2,4-diamine], for which the pIC50 in assay [1] is 5.30 to 6.30; against IGF 3P, > 7.30.
In the same order, the values of `CC(C)c1cc(Nc2cc(OCCN3CCOCC3)nc(NCc3cc(-c4ccccc4)no3)n2)n[nH]1` [Example 588, N^4-[5-(1-methylethyl)-1H-pyrazol-3-yl]-6-[(2-morpholin-4-ylethyl)oxy]-N^2-[(3-phenylisoxazol-5-yl)methyl]pyrimidine-2,4-diamine] are 6.30 to 7.30 and > 7.30.
With `CC(C)c1cc(Nc2cc(OCCN3CCCCC3)nc(NCc3cc(-c4ccccc4)no3)n2)[nH]n1` [Example 589, N^4-[3-(1-methylethyl)-1H-pyrazol-5-yl]-N^2-[(3-phenylisoxazol-5-yl)methyl]-6-[(2-piperidin-1-ylethyl)oxy]pyrimidine-2,4-diamine], the negative logarithm of the IC50 (pIC50) was 6.30 to 7.30 in assay [1] and > 7.30 against IGF 3P.
For `CC(C)c1cc(Nc2cc(N3CCN[C@@H](C)C3)nc(NCc3cc(-c4ccccc4)no3)n2)n[nH]1` [Example 591, N^4-[5-(1-methylethyl)-1H-pyrazol-3-yl]-6-[(3S)-3-methylpiperazin-1-yl]-N^2-[(3-phenylisoxazol-5-yl)methyl]pyrimidine-2,4-diamine] the same measures were 6.30 to 7.30 and > 7.30.
In the same order, the values of `CCN(CC)CCNc1cc(Nc2cc(C(C)C)[nH]n2)nc(NCc2cc(-c3ccccc3)no2)n1` [Example 592, N^4-[2-(diethylamino)ethyl]-N^6-[5-(1-methylethyl)-1H-pyrazol-3-yl]-N^2-[(3-phenylisoxazol-5-yl)methyl]pyrimidine-2,4,6-triamine] are 6.30 to 7.30 and > 7.30.
For `CC(C)c1cc(CNc2nc(Nc3cc(C4CC4)[nH]n3)cc(OCCN3CCOCC3)n2)on1` [Example 594, N^4-(5-cyclopropyl-1H-pyrazol-3-yl)-N^2-{[3-(1-methylethyl)isoxazol-5-yl]methyl}-6-[(2-morpholin-4-ylethyl)oxy]pyrimidine-2,4-diamine] the same measures were 5.30 to 6.30 and > 7.30.
In the case of `CC(C)c1cc(Nc2cc(OCCN3CCCCC3)nc(NCc3cc(C(C)C)no3)n2)[nH]n1` [Example 595, N^2-{[3-(1-methylethyl)isoxazol-5-yl]methyl}-N^4-[3-(1-methylethyl)-1H-pyrazol-5-yl]-6-[(2-piperidin-1-ylethyl)oxy]pyrimidine-2,4-diamine], the pIC50 is 6.30 to 7.30 in assay [1] and > 7.30 on IGF 3P.
In the same order, the values of `CC(C)c1cc(CNc2nc(Nc3cc(C4CC4)n[nH]3)cc(OCCN3CCCCC3)n2)on1` [Example 597, N^4-(3-cyclopropyl-1H-pyrazol-5-yl)-N^2-{[3-(1-methylethyl)isoxazol-5-yl]methyl}-6-[(2-piperidin-1-ylethyl)oxy]pyrimidine-2,4-diamine] are 6.30 to 7.30 and > 7.30.
For `Cc1cc(CNc2nc(C)cc(Nc3cc(C4CC4)n[nH]3)n2)on1` [Example 600, N^4-(3-cyclopropyl-1H-pyrazol-5-yl)-6-methyl-N^2-[(3-methylisoxazol-5-yl)methyl]pyrimidine-2,4-diamine] the same measures were 6.30 to 7.30 and 6.30 to 7.30.
In the same order, the values of `Cc1cc(CNc2nc(Nc3cc(C4CC4)n[nH]3)cc(N3CCOCC3)n2)on1` [Example 601, N^4-(3-cyclopropyl-1H-pyrazol-5-yl)-N^2-[(3-methylisoxazol-5-yl)methyl]-6-morpholin-4-ylpyrimidine-2,4-diamine] are 6.30 to 7.30 and > 7.30.
Turning to `Cc1cc(CNc2nc(Nc3cc(C4CC4)n[nH]3)cc(N3CCN(C)CC3)n2)on1` [Example 602, N^4-(3-cyclopropyl-1H-pyrazol-5-yl)-N^2-[(3-methylisoxazol-5-yl)methyl]-6-(4-methylpiperazin-1-yl)pyrimidine-2,4-diamine], the values for the negative-log IC50 (pIC50) (in assay [1]; at IGF 3P) were 6.30 to 7.30 and > 7.30, respectively.
Turning to `Fc1ccc(-c2cc(CNc3nc(Nc4cc(C5CC5)n[nH]4)cc(N4CCOCC4)n3)on2)cc1` [Example 604, N^4-(3-cyclopropyl-1H-pyrazol-5-yl)-N^2-{[3-(4-fluorophenyl)isoxazol-5-yl]methyl}-6-morpholin-4-ylpyrimidine-2,4-diamine], the values for the pIC50 (in assay [1]; on IGF 3P) were 6.30 to 7.30 and > 7.30, respectively.
For `CN1CCN(c2cc(Nc3cc(C4CC4)n[nH]3)nc(NCc3cc(-c4ccc(F)cc4)no3)n2)CC1` [Example 605, N^4-(3-cyclopropyl-1H-pyrazol-5-yl)-N^2-{[3-(4-fluorophenyl)isoxazol-5-yl]methyl}-6-(4-methylpiperazin-1-yl)pyrimidine-2,4-diamine], the results for the pIC50 (in assay [1]; on IGF 3P) were 6.30 to 7.30 and > 7.30, respectively.
As for `Fc1ccc(-c2cc(CNc3nc(Nc4cc(C5CC5)n[nH]4)cc(OCCN4CCOCC4)n3)on2)cc1` [Example 606, N^4-(3-cyclopropyl-1H-pyrazol-5-yl)-N^2-{[3-(4-fluorophenyl)isoxazol-5-yl]methyl}-6-[(2-morpholin-4-ylethyl)oxy]pyrimidine-2,4-diamine], the pIC50 was 6.30 to 7.30 in assay [1] and > 7.30 against IGF 3P.
For `CC(C)c1cc(Nc2cc(N3CCOCC3)nc(NCc3cc(-c4ccc(F)cc4)no3)n2)[nH]n1` [Example 607, N^2-{[3-(4-fluorophenyl)isoxazol-5-yl]methyl}-N^4-[3-(1-methylethyl)-1H-pyrazol-5-yl]-6-morpholin-4-ylpyrimidine-2,4-diamine] the same measures were 6.30 to 7.30 and > 7.30.
In the same order, the values of `CC(C)c1cc(Nc2cc(N3CCN(C)CC3)nc(NCc3cc(-c4ccc(F)cc4)no3)n2)[nH]n1` [Example 608, N^2-{[3-(4-fluorophenyl)isoxazol-5-yl]methyl}-N^4-[3-(1-methylethyl)-1H-pyrazol-5-yl]-6-(4-methylpiperazin-1-yl)pyrimidine-2,4-diamine] are 6.30 to 7.30 and > 7.30.
Consider `CC(C)c1cc(Nc2cc(OCCN3CCOCC3)nc(NCc3cc(-c4ccc(F)cc4)no3)n2)[nH]n1` [Example 609], for which the negative-log IC50 (pIC50) in assay [1] is 6.30 to 7.30; against IGF 3P, > 7.30.
For `Cc1cc(Nc2cc(C3CC3)[nH]n2)nc(NCc2cc(-c3cccnc3)no2)n1` [Example 610, N^4-(5-cyclopropyl-1H-pyrazol-3-yl)-6-methyl-N^2-[(3-pyridin-3-ylisoxazol-5-yl)methyl]pyrimidine-2,4-diamine] the same measures were 6.30 to 7.30 and > 7.30.
In the same order, the values of `CN1CCN(c2cc(Nc3cc(C4CC4)[nH]n3)nc(NCc3cc(-c4ccccn4)no3)n2)CC1` [Example 611, N^4-(5-cyclopropyl-1H-pyrazol-3-yl)-6-(4-methylpiperazin-1-yl)-N^2-[(3-pyridin-2-ylisoxazol-5-yl)methyl]pyrimidine-2,4-diamine] are 6.30 to 7.30 and > 7.30.
In the same order, the values of `c1ccc(-c2cc(CNc3nc(Nc4cc(C5CC5)[nH]n4)cc(N4CCOCC4)n3)on2)nc1` [Example 612, N^4-(5-cyclopropyl-1H-pyrazol-3-yl)-6-morpholin-4-yl-N^2-[(3-pyridin-2-ylisoxazol-5-yl)methyl]pyrimidine-2,4-diamine] are 6.30 to 7.30 and > 7.30.
`CC(=O)N1CCN(c2cc(Nc3cc(C4CC4)[nH]n3)nc(NCc3cc(C(C)C)no3)n2)CC1` [Example 614, 6-(4-acetylpiperazin-1-yl)-N^4-(5-cyclopropyl-1H-pyrazol-3-yl)-N^2-{[3-(1-methylethyl)isoxazol-5-yl]methyl}pyrimidine-2,4-diamine]: the pIC50 was 6.30 to 7.30 in assay [1] and > 7.30 against IGF 3P.
In the same order, the values of `CC(C)c1cc(CNc2nc(Nc3cc(C4CC4)[nH]n3)cc(N3CCN(S(C)(=O)=O)CC3)n2)on1` [Example 615, N^4-(5-cyclopropyl-1H-pyrazol-3-yl)-N^2-{[3-(1-methylethyl)isoxazol-5-yl]methyl}-6-[4-(methylsulfonyl)piperazin-1-yl]pyrimidine-2,4-diamine] are 6.30 to 7.30 and > 7.30.
With `Cc1cc(Nc2cc(N3CCOCC3)nc(NCc3cc(-c4ccccc4)no3)n2)[nH]n1` [Example 617, N^4-(3-methyl-1H-pyrazol-5-yl)-6-morpholin-4-yl-N^2-[(3-phenylisoxazol-5-yl)methyl]pyrimidine-2,4-diamine], the negative-log IC50 (pIC50) was 6.30 to 7.30 in assay [1] and > 7.30 against IGF 3P.
Consider `Cc1cc(Nc2cc(N3CCN(C)CC3)nc(NCc3cc(-c4ccccc4)no3)n2)[nH]n1` [Example 618, 6-(4-methylpiperazin-1-yl)-N^4-(3-methyl-1H-pyrazol-5-yl)-N^2-[(3-phenylisoxazol-5-yl)methyl]pyrimidine-2,4-diamine], for which the pIC50 in assay [1] was 6.30 to 7.30; on IGF 3P it was > 7.30.
In the same order, the values of `Cc1cc(Nc2cc(OCCN3CCOCC3)nc(NCc3cc(-c4ccccc4)no3)n2)[nH]n1` [Example 619, N^4-(3-methyl-1H-pyrazol-5-yl)-6-[(2-morpholin-4-ylethyl)oxy]-N^2-[(3-phenylisoxazol-5-yl)methy]pyrimidine-2,4-diamine] are 6.30 to 7.30 and 6.30 to 7.30.
For `Cc1cc(Nc2cc(C3CC3)[nH]n2)nc(NCc2cc(-c3ccncc3)no2)n1` [Example 620, N^4-(5-cyclopropyl-1H-pyrazol-3-yl)-6-methyl-N^2-[(3-pyridin-4-ylisoxazol-5-yl)methyl]pyrimidine-2,4-diamine] the same measures were 6.30 to 7.30 and 6.30 to 7.30.
Turning to `Cc1cc(Nc2cc(C3CC3)[nH]n2)nc(NCc2cc(-c3ccc(F)c(F)c3)no2)n1` [Example 621, N^4-(5-cyclopropyl-1H-pyrazol-3-yl)-N^2-{[3-(3,4-difluorophenyl)isoxazol-5-yl]methyl}-6-methylpyrimidine-2,4-diamine], the negative-log IC50 (pIC50) in assay [1] was 6.30 to 7.30; at IGF 3P, > 7.30.
